Data published in patent EP0906913A1, “Pteridinderivatives as NO synthase inhibitors” (Werner, Ernst, priority 1997, dated 1999).

Columns and labels:
[1] = molecular target: T1, rekombinante, neuronale, Tetrahydrobiopterin-freie NO-Synthase (Rattus norvegicus, UniProt P29476); test: Inhibition of recombinant neuronal tetrahydrobiopterin-free NO synthase ([3H]citrulline formation from [3H]arginine); format: biochemical; conditions: for NO-Synthase -Aktivität / inhibition at 0.01 µM / inhibition at 0.1 µM / inhibition at 1 µM / inhibition at 10 µM / inhibition at 100 µM / inhibition at 1000 µM: 10 µM Tetrahydrobiopterin, 10 min, 37°C; for inhibition at 0.01 µM / inhibition at 0.1 µM / inhibition at 1 µM / inhibition at 10 µM / inhibition at 100 µM / inhibition at 1000 µM: read-out: Hemmung
T1 construct: made in house
Experimental: Zum Nachweis der Wirkung der Hemmstoffe eignet sich z.B. rekombinante, neuronale, Tetrahydrobiopterin-freie NO-Synthase, welche nach der Methode von List et al. 1996 (Ref. 7) hergestellt wird. Die NO-Synthaseaktivität wird dabei in Abhängigkeit von der Zugabe des NO-Synthase-Hemmstoffes durch die Bildung von [2,3,4,5-^3H]Citrullin aus [2,3,4,5-^3H]Arginin nach der Methode von Mayer et al. (Ref. 8) bestimmt. Dazu wird in 0.1 ml folgendes Gemisch für 10 min bei 37°C inkubiert: 0.1 µg NO-Synthase, 0.1mM [2,3,4,5-^3H]-L-Arginin (ca. 60000 cpm), 0.5 mM CaCl2, 10 µg/ml Calmodulin, 0.2 mM NADPH (Nicotinamidadenindinukleotid, reduzierte Form), 10 µM Tetrahydrobiopterin, 0-1000 µM NO-Synthase-Inhibitor (z.B. H2aminobiopterin), 5 µM FAD (Flavinadenindinucleutid), 5 µM FMN (Flavinmononucleotid), und 0.2 mM CHAPS (3-[(3-cholamidopropyl)dimethyl-amonio]-1-propansulfonat). Die Reaktion wird durch Zugabe von 0.9 ml 20 mM Natriumacetatpuffer, pH = 5,5, der 1 mM L-Citrullin enthält, gestoppt. Das Gemisch wird anschließend auf Ionenaustauschersäulen, die mit dem Material DOWEX AG50W-X8 gefüllt sind, aufgetragen, und das Eluat sowie die Waschflüssigkeit (1 ml Wasser) werden aufgefangen. 7 ml Scintillationscocktail werden zugegeben und die Radioaktivität, die ein Maß für die NO-Synthaseaktivität ist, wird mit einem Szintillationszähler bestimmt. Tabelle I

[2] = tested on: kultivierten, cytokin-stimulierten Mausfibroblasten; test: Nitrite in supernatant of cultured cytokine-stimulated mouse fibroblasts (Griess reaction); format: cell-based, Maus; conditions: for inhibition at 2.5 µM / inhibition at 10 µM / inhibition at 25 µM / inhibition at 100 µM / inhibition at 250 µM: Fibroblast, read-out: Hemmung; for inhibition at 2.5 µM / inhibition at 10 µM / inhibition at 25 µM / inhibition at 100 µM / inhibition at 250 µM / Nitrit im Überstand: 96 h, Interferon-gamma, TNF-alpha, LPS stimulated
Experimental: Zum Nachweis der Wirksamkeit einer Verbindung der vorliegenden Erfindung an kultivierten Zellen wurden Mausfibroblasten nach Werner-Felmayer et al., (Ref. 9) gewonnen und in RPMI 1640 Medium (Schoeller Pharma, Wien, Österreich) mit 20% Hitze-inaktiviertem fötalem Kälberserum (Schoeller Pharma) in einer Dichte von 10^5 Zellen pro ml ausgesät und mit 50 U/ml Mäuse-Interferongamma, 100 U/ml Tumornekrose Faktor-Alpha und 1 µg/ml Lipopolysaccharid (E. coli B55:05) in Gegenwart verschiedener Konzentrationen von Hemmstoffen kultiviert. Nach 96 h im Brutschrank (100% Luftfeuchtigkeit, 37°C, 5% CO2) werden die Überstände gesammelt und mit der Griess-Reaktion auf ihren Gehalt an Nitrit, einem Abbauprodukt von NO, analysiert. Die folgende Tabelle 2 zeigt einen Vergleich von H2aminobiopterin (R1 = R3 = H, R2 = R4 = OH, R5 = CH3), H4aminobiopterin und Beispiel 72 aus DE 4418097: Tabelle 2

For `C[C@H](O)[C@H](O)C1=Nc2c(N)nc(N)nc2NC1` [H2aminobiopterin, 2,4-diamino-7,8-dihydro-6(L-erythro-1,2-dihydroxylpropyl) pteridin], the “Hemmung des Enzyms (Vergleich)” value ([1]; in words, compared with 6R-H4aminobiopterin) was “in der gleichen Größenordnung”, the “Wirksamkeit am Enzym (Vergleich)” value ([1]; in words, compared with Beispiel 72 of DE 4418097) was “wesentlich wirksamer” and the “NO-Synthase -Aktivität” value ([1]; inhibitor 0.01 µM) was 294 nmol/mg/min. For the same compound, the inhibition at 0.01 µM ([1]; inhibitor 0.01 µM) was 0.3%, the “NO-Synthase -Aktivität” value ([1]; inhibitor 0.1 µM) was 283 nmol/mg/min and the inhibition at 0.1 µM ([1]; inhibitor 0.1 µM) was 4%. For the same compound, the “NO-Synthase -Aktivität” value ([1]; inhibitor 1.0 µM) was 242 nmol/mg/min, the inhibition at 1 µM ([1]; inhibitor 1.0 µM) was 18% and the “NO-Synthase -Aktivität” value ([1]; inhibitor 10. µM) was 110 nmol/mg/min. The inhibition at 10 µM ([1]; inhibitor 10. µM) was 64%, the “NO-Synthase -Aktivität” value ([1]; inhibitor 100. µM) was 48 nmol/mg/min and the inhibition at 100 µM ([1]; inhibitor 100. µM) was 83%. The “NO-Synthase -Aktivität” value ([1]; inhibitor 1000. µM) was 25 nmol/mg/min, the inhibition at 1000 µM ([1]; inhibitor 1000. µM) was 92% and the inhibition at 2.5 µM ([2]; inhibitor 2.5 µM) was 35%. For the same compound, the inhibition at 10 µM ([2]; inhibitor 10 µM) was 78%, the inhibition at 25 µM ([2]; inhibitor 25 µM) was 99% and the inhibition at 100 µM ([2]; inhibitor 100 µM) was 100%. The inhibition at 250 µM ([2]; inhibitor 250 µM) was 100%, the “Wirksamkeit an kultivierten Zellen (Vergleich)” value ([2]; in words, compared with previously known pteridine derivatives) was “deutlich wirksamer” and the “Nitrit im Überstand” value ([2]; inhibitor 2.5 µM) was 6.2 µM. The “Nitrit im Überstand” value ([2]; inhibitor 10 µM) was 2.1 µM, the “Nitrit im Überstand” value ([2]; inhibitor 25 µM) was 0.1 µM and the “Nitrit im Überstand” value ([2]; inhibitor 100 µM) was 0.0 µM. For the same compound, the “Nitrit im Überstand” value ([2]; inhibitor 250 µM) was 0.0 µM.
In the case of `C[C@H](O)[C@H](O)[C@H]1CNc2nc(N)nc(N)c2N1` [H4aminobiopterin, 2,4-Diamino-5,6,7,8-tetrahydro-6R-(L-erythro-1,2 dihydroxypropyl)pteridin, reference compound], the “NO-Synthase -Aktivität” value ([1]; inhibitor 0.01 µM) is reported as 279 nmol/mg/min, the inhibition at 0.01 µM ([1]; inhibitor 0.01 µM) is reported as 6% and the “NO-Synthase -Aktivität” value ([1]; inhibitor 0.1 µM) is reported as 262 nmol/mg/min. The inhibition at 0.1 µM ([1]; inhibitor 0.1 µM) was 12%, the “NO-Synthase -Aktivität” value ([1]; inhibitor 1.0 µM) was 181 nmol/mg/min and the inhibition at 1 µM ([1]; inhibitor 1.0 µM) was 39%. The “NO-Synthase -Aktivität” value ([1]; inhibitor 10. µM) was 72 nmol/mg/min, the inhibition at 10 µM ([1]; inhibitor 10. µM) was 76% and the “NO-Synthase -Aktivität” value ([1]; inhibitor 100. µM) was 35 nmol/mg/min. For the same compound, the inhibition at 100 µM ([1]; inhibitor 100. µM) was 88%, the “NO-Synthase -Aktivität” value ([1]; inhibitor 1000. µM) was 24 nmol/mg/min and the inhibition at 1000 µM ([1]; inhibitor 1000. µM) was 92%. The inhibition at 2.5 µM ([2]; inhibitor 2.5 µM) was 7%, the inhibition at 10 µM ([2]; inhibitor 10 µM) was 36% and the inhibition at 25 µM ([2]; inhibitor 25 µM) was 62%. For the same compound, the inhibition at 100 µM ([2]; inhibitor 100 µM) was 96%, the inhibition at 250 µM ([2]; inhibitor 250 µM) was 99% and the “Nitrit im Überstand” value ([2]; inhibitor 2.5 µM) was 9.3 µM. For the same compound, the “Nitrit im Überstand” value ([2]; inhibitor 10 µM) was 6.4 µM, the “Nitrit im Überstand” value ([2]; inhibitor 25 µM) was 3.8 µM and the “Nitrit im Überstand” value ([2]; inhibitor 100 µM) was 0.4 µM. The “Nitrit im Überstand” value ([2]; inhibitor 250 µM) was 0.02 µM.
